Assay results taken from US4726941A, “Acylated cyanamide composition for treating ethanol ingestion” (Regents of the University of Minnesota, priority 1986, dated 1988).
Where two headings read alike, the source gives them in different places.

What was measured:
AlDH [1] = experiment: Initial screen: elevation of blood acetaldehyde (AcH) after ethanol in rats, prodrug 1.0 mmol/kg ip; assay type: in vivo; settings: rat; for potency in elevating ethanol-derived blood AcH (in words): 3 hours post-drug; for duration of action / blood AcH at 16 hours (in words): 16 hours post-drug; for elevation of blood AcH over controls at 16 hours: ethanol 2 g/kg ip at 15 hours, sacrifice 16 hours post-drug; for elevation of blood AcH over drug-free controls at 3 hours: ethanol 2 g/kg ip at 2 hours, sacrifice 3 hours post-drug
Procedure: Compounds 1-11 were evaluated in rats for their ability to elevate and maintain blood acetaldehyde (AcH) levels following ethanol administration employing the methodology outlined in Table I.
1. Drug Dose: 1.0 mmol/kg (ip)
2. Animals: Male rats of Sprague-Dawley descent (BioLab, Inc., St. Paul, MN), weighing 185-225 g were used. Four animals were used for each drug administration protocol.
3. Timing: Animals were fasted beginning at 7:00 or 8:00 AM. One group of rats were administered the prodrug at 5:00 PM (zero time) and ethanol (2 g/kg, ip) at 8:00 AM (15 hours), and the animals were sacrificed at 9:00 AM (16 hours). A second set of rats received the prodrug at 6:30 AM (zero time) and ethanol at 8:30 AM (2 hours) and the animals were sacrificed at 9:30 AM (3 hours). Cyanamide treated animals (1.0 mmol/kg) served as positive control. Blood AcH levels were determined as described hereinbelow.
(§1) Blood AcH levels were measured 1 hour after ethanol (2 g/kg, ip) in treated and control animals essentially as described by Shirota et al., in J. Med Chem., 23, 669 (1980). The animal was stunned by a quick blow to the head and blood was immediately withdrawn by open chest cardiac puncture. Aliquots (0.2 ml) were placed in 20 ml serum vials containing 1.0 ml of 5 mM sodium azide (to minimize the artifactual generation of AcH from ethanol), and the vials immediately capped with a rubber septum, frozen on Dry Ice, and kept frozen at -20° C. until assayed. AcH was determined in duplicate by the head-space gas chromatographic procedure previously described by Nagasawa et al., in Life Sci., 20, 187 (1977), and quantitated using a standard curve based on standards with known concentrations of AcH.

AlDH [2] = experiment: Time course protocol (72 hour), ip: blood AcH after ethanol in rats; assay type: in vivo; settings: rat; for duration of blood AcH elevation over 72-hour time course (in words) / time at which blood AcH elevation reached maximum: FIG. 5 (0.5 mmol/kg); for time at which blood AcH elevation reached maximum: ethanol 2 g/kg ip 1 hour before sacrifice
Procedure: FIG. 5 is a graphic depiction of the effectiveness of four of the compositions of the invention in elevating blood AcH following ethanol administration in rats over a 72 hour time course (0.5 mmol/kg i.p. dose).
(§2) 1. Drug Dose: 0.5 mmol/kg (ip); 1.0 mmol/kg (po)
(§3) 2. Animals: Male rats of Sprague-Dawley descent (BioLab, Inc., St. Paul, MN), weighing 176-200 g were used. Two animals were used for each drug administration protocol.
(§4) 3. Timing: Overnight fasted animals were administered the prodrug at zero time, ethanol (2 g/kg, ip) at 1, 4, 11, 23, 35, 47 and 71 hours and sacrificed 1 hour subsequent to each ethanol administration. Cyanamide treated animals (1.0 mmol/kg) served as positive control.
as §1

[3] = Stability of the purified compound on standing; assay type: physicochemical; settings: clear colorless liquid, storage at 5° C.
Procedure: n-Butyryl chloride (3.2 g, 3.12 ml, 0.030 mol) in 50 ml of freshly distilled dry THF was added drop-wise to a suspension of sodium cyanamide (5.76 g, 0.090 mol) in 100 ml of freshly distilled dry THF at ice bath temperature. The reaction was allowed to proceed at room temperature for 24 hours and then the mixture evaporated to dryness in vacuo. The resulting yellow solid residue was dissolved in distilled water (50 ml) and the alkaline solution was adjusted to pH 6.5 with 10% HCl. The mixture was then extracted with ethyl acetate (2×50 ml). […] TLC: Rf =0.6 in EtOAC/petroleum ether/AcOH (50:100:1), detected by UV quenching and orange color with ferricyanide spray reagent; IR (neat, cm^-1) 3100-3250 (NH), 2860-2960 (alkyl), 2260 (C≡N), 1725 (C=0); NMR (Silanor C, δ from TMS) 8.2-8.5 (broad, NH), 2.3-2.6 (t, --CH2 --CH2 --C=O), 1.5-1.9 (sextet, CH3 --CH2 --CH2 --), 0.8-1.1 (t, CH3 --CH2 --); CI--MS (NH 3 : positive) m/z (rel. intensity) 147 (12.6, [(M+1)+2NH3 ]), 130 (100.0) [(M+1)+NH3 ], 105 (5.2) [(M+1)+2NH3 --H2 NCN]; CI--MS (NH3 : negative) m/z (rel. intensity) 111 (100.0) [M-1], 68 (2.0) [(M-1)--CH3 CH2 CH2 ], 41 (16.7) [(M-1)--CH3 CH2 CH=C=O].

[4] = system: aldehyde dehydrogenase (AlDH); settings: without enzymatic activation, cited from earlier work
AlDH [5] = experiment: Time course protocol (72 hour), oral: blood AcH after ethanol in rats; assay type: in vivo; settings: rat, 1.0 mmol/kg po, FIG. 6
Procedure: FIG. 6 is a graphic depiction of the effectiveness of palmitoylcyanamide and N-benzoyl-L-leucylcyanamide, administered orally, in elevating blood AcH following ethanol administration in rats over a 72 hour time course.
as §2, §3, §4, §1

[6] = system: aldehyde dehydrogenase (AlDH); settings: clinical use, background statement; cited from earlier work
[7] = rat, within 6 hours; cited from earlier work

SMILES: CC(C)(C)C(=O)NC#N [Compound 3, Pivaloylcyanamide]
- potency in elevating ethanol-derived blood AcH (in words) (AlDH [1]): very potent
- duration of action / blood AcH at 16 hours (in words) (AlDH [1]): short acting

SMILES: N#CNC(=O)C12CC3CC(CC(C3)C1)C2.N#CNC(=O)C12CC3CC(CC(C3)C1)C2 [Compound 4, 1-Adamantanecarbonyl Cyanamide (1-Adamantoylcyanamide)]
- potency in elevating ethanol-derived blood AcH (in words) (AlDH [1]): very potent
- duration of action / blood AcH at 16 hours (in words) (AlDH [1]): short acting

SMILES: CCCCCCCCCCCCCCCCCC(=O)NC#N [Compound 7, Stearoylcyanamide]
- potency in elevating ethanol-derived blood AcH (in words) (AlDH [1]): almost as potent as cyanamide
- elevation of blood AcH over controls at 16 hours (AlDH [1]): more than 50 fold
- duration of blood AcH elevation over 72-hour time course (in words) (AlDH [2]): gradually fell
- time at which blood AcH elevation reached maximum (AlDH [2]): around 5 hours

SMILES: N#CNC(=O)c1ccccc1 [Compound 2, Benzoylcyanamide]
- elevation of blood AcH over controls at 16 hours (AlDH [1]): 10 fold

SMILES: CCCC(=O)NC#N [Compound 5, n-Butyrylcyanamide]
- potency in elevating ethanol-derived blood AcH (in words) (AlDH [1]): even more potent than cyanamide itself
- duration of action / blood AcH at 16 hours (in words) (AlDH [1]): short-acting
- elevation of blood AcH over drug-free controls at 3 hours (AlDH [1]): 170 fold
- elevation of blood AcH over controls at 16 hours (AlDH [1]): approximately 20 fold
- stability on standing [3]: decomposes on standing even at 5 °C after prolonged periods

SMILES: CC(=O)NC#N [AC, acetylcyanamide]
- AlDH inhibitory activity in vitro [4]: devoid of AlDH inhibitory activity in vitro

SMILES: N#CNC(=O)[C@H](Cc1ccccc1)NC(=O)[C@@H]1CCC(=O)N1 [Compound 15, L-Pyroglutamyl-L-phenylalanylcyanamide]
- potency in elevating ethanol-derived blood AcH (in words) (AlDH [1]): very potent inhibitor of AlDH in vivo
- elevation of blood AcH over drug-free controls at 3 hours (AlDH [1]): more than 110 fold

SMILES: CC(C)C[C@H](NC(=O)CNC(=O)OCc1ccccc1)C(=O)NC#N [Compound 12, N-Cbz-glycyl-L-leucylcyanamide]
- potency in elevating ethanol-derived blood AcH (in words) (AlDH [1]): more potent than (9)
- duration of action / blood AcH at 16 hours (in words) (AlDH [1]): did not maintain significantly elevated blood AcH level

SMILES: N#CNC(=O)[C@@H]1CCC(=O)N1C(=O)OCc1ccccc1 [Compound 13, N-Cbz-L-pyroglutamylcyanamide]
- potency in elevating ethanol-derived blood AcH (in words) (AlDH [1]): not nearly as potent as the other prodrugs

SMILES: CC(C)C[C@H](NC(=O)[C@@H]1CCC(=O)N1)C(=O)NC#N [Compound 14, L-Pyroglutamyl-L-leucylcyanamide]
- potency in elevating ethanol-derived blood AcH (in words) (AlDH [1]): not nearly as potent as the other prodrugs

SMILES: N#CNC(=O)CNC(=O)OCc1ccccc1 [Compound 9, N-Carbobenzoxyglycylcyanamide]
- duration of action / blood AcH at 16 hours (in words) (AlDH [1]): reduced to almost control levels
- elevation of blood AcH over drug-free controls at 3 hours (AlDH [1]): more than 80 fold

SMILES: N#CNC(=O)CNC(=O)c1ccccc1.N#CNC(=O)CNC(=O)c1ccccc1 [Compound 10, N-Benzoylglycylcyanamide (Hippurylcyanamide)]
- potency in elevating ethanol-derived blood AcH (in words) (AlDH [1]): less potent than N-benzoyl-L-leucylcyanamide (11)
- duration of action / blood AcH at 16 hours (in words) (AlDH [1]): long-acting with significant levels of blood AcH present
- duration of blood AcH elevation over 72-hour time course (in words) (AlDH [2]): failed to maintain elevated blood AcH past 12 hours

SMILES: CC(=O)NC#N.[Na] [Compound 1, Sodium Acetylcyanamide]
- potency in elevating ethanol-derived blood AcH (in words) (AlDH [1]): much weaker than cyanamide
- elevation of blood AcH over drug-free controls at 3 hours (AlDH [1]): 25 fold

SMILES: CCCCCCCCCCCCCCCC(=O)NC#N [Compound 6, Palmitoylcyanamide]
- potency in elevating ethanol-derived blood AcH (in words) (AlDH [1]): almost as potent as cyanamide
- elevation of blood AcH over controls at 16 hours (AlDH [1]): 100 fold
- duration of blood AcH elevation over 72-hour time course (in words) (AlDH [2]): significantly elevated even at 48 hours
- time at which blood AcH elevation reached maximum (AlDH [2]): around 5 hours
- time at which AcH levels once again increased (AlDH [5]): 24 h
- time at which blood AcH fell back to control levels (AlDH [5]): around 36 hours
- time of maximum AcH levels (AlDH [5]): 2 h
- time of trough of AcH levels (AlDH [5]): 12 h

SMILES: [Ca+2].[N-]=C=[N-] [calcium carbimide]
- duration of activity [6]: approximately 24 hours

SMILES: N#CN [Cyanamide, cyanamide]
- elevation of blood AcH over drug-free controls at 3 hours (AlDH [1]): 150 fold
- elevation of blood AcH over controls at 16 hours (AlDH [1]): more than 25 fold
- AlDH inhibitory activity in vitro ([4]; listed as cyanamide): devoid of AlDH inhibitory activity in vitro
- AlDH inhibitory activity in vitro [4]: does not inhibit AlDH
- duration of blood AcH elevation over 72-hour time course (in words) (AlDH [2]): fell rapidly almost to control values at 36 hours
- time at which blood AcH elevation reached maximum (AlDH [2]): ≤ 2 h
- administered cyanamide eliminated as acetylcyanamide in the urine [7]: At least 94%

SMILES: CC(C)C[C@H](NC(=O)c1ccccc1)C(=O)NC#N [Compound 11, N-Benzoyl-L-leucylcyanamide]
- potency in elevating ethanol-derived blood AcH (in words) (AlDH [1]): elevated blood AcH levels
- duration of action / blood AcH at 16 hours (in words) (AlDH [1]): long-acting with significant levels of blood AcH present
- duration of blood AcH elevation over 72-hour time course (in words) (AlDH [2]): continued to maintain elevated blood AcH even at 72 hours
- initial blood AcH level at 2 hours compared with cyanamide (AlDH [2]; FIG. 5, 2 hours): less than cyanamide
- time at which AcH levels once again increased (AlDH [5]): 24 h
- time at which blood AcH fell back to control levels (AlDH [5]): around 36 hours
- time of maximum AcH levels (AlDH [5]): 2 h
- time of trough of AcH levels (AlDH [5]): 12 h

SMILES: N#CNC(=O)OCc1ccccc1.[Na] [Compound 8, N-Carbobenzoxycyanamide, Sodium Salt]
- elevation of blood AcH over drug-free controls at 3 hours (AlDH [1]): 120 fold
